How the values were obtained:
[1] = system: breast tumor cells MDA-MB-436; assay: MDA-MB-436 cell activity test (CellTiter-Glo, 7 days); type: cell-based, human; conditions: Homo sapiens
Procedure, shortened: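 MDA-MB-436 cells in Leibovitz's L-15 + 10% FBS, 37° C. without CO2, seeded 4000 cells/well overnight, then treated with compound dilutions for 7 days. Viability by CellTiter-Glo luminescence; inhibition relative to solvent control and cell-free blank, IC50 from concentration-response.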

PARP1 = PARP1 (Homo sapiens (Human), UniProt P09874); assay: PARP1 enzyme activity inhibition (chemiluminescence kit); type: biochemical
Sequence of PARP1 (P09874 whole entry): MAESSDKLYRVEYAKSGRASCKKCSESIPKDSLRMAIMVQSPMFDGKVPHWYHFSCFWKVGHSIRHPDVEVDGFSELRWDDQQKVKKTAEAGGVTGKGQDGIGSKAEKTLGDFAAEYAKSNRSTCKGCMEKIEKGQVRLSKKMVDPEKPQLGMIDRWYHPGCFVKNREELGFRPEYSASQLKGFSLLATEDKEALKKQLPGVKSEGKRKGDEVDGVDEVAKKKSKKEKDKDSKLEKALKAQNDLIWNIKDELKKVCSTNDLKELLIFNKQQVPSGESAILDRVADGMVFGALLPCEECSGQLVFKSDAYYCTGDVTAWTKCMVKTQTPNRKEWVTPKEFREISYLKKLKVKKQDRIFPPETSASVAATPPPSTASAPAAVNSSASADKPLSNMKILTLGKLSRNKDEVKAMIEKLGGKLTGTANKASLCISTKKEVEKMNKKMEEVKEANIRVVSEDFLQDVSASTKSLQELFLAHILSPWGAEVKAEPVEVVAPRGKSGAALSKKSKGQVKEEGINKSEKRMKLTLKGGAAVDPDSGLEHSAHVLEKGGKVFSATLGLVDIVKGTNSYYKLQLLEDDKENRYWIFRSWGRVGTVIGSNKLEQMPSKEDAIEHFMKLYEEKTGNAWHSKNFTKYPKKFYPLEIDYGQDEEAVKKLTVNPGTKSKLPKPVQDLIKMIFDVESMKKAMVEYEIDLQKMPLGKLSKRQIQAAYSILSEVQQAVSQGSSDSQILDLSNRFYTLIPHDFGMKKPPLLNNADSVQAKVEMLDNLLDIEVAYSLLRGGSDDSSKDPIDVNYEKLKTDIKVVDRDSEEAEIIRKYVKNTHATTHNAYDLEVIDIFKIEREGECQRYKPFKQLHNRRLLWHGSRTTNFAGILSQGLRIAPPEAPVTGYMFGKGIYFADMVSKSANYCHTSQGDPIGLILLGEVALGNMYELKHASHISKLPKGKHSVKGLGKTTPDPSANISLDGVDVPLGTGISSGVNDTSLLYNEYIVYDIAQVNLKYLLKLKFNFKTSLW
Experimental: PARP1, PARP2 and PARP7 chemical […] detection kits were all purchased from BPS Bioscience. The histone solution in the kit was diluted 5× with 1×PBS, and 25 μL of the diluted histone solution was added to a microwell plate and incubated overnight at 4° C. After the incubation was completed, the plate was washed three times with PBST (0.05% Tween-20). 25 μL of a blocking solution was added to the microwell plate and incubated at 25° C. for 90 minutes. After the incubation was completed, the plate was washed three times with PBST. 2.5 μL of compounds at different concentrations diluted in test buffer and 5 μL of 2.5× substrate mixed solution were added to the microwell plate. PARP1, PARP2 and PARP7 enzymes were diluted to 0.33, 0.23 and 5.00 ng/μL, respectively, 5 μL of the diluent was added to the microwell plate, and the reaction system was incubated at 25° C. for 60 minutes. After the incubation was completed, the plate was washed three times with PBST. […] ELISA ECL substrate A and substrate B were mixed at a ratio of 1:1 (v/v), 25 μL of the mixture was added to the microwell plate, and the chemiluminescence value was read using a BMG microplate reader.
Curve fitting was performed by four parameters (log(inhibitor) vs. response−Variable slope) using GraphPad Prism software, and the IC50 value was calculated.

## CCc1cc2ncc(CN3CCN(c4ccc(C(=O)NC5CCN(c6ccc7c(c6)C(=O)N(C6CCC(=O)NC6=O)C7=O)CC5)nc4)CC3)cc2[nH]c1=O (stereo not shown) [Compound 10, N-(1-(2-(2,6-dioxopiperidin-3-yl)-1,3-dioxoisoindolin-5-yl)piperidin-4-yl)-5-(4-((7-ethyl-6-oxo-5,6-dihydro-1,5-naphthyridin-3-yl)methyl)piperazin-1-yl)picolinamide]
[1]; MDA-MB-436, 168 h, MDA-MB-436 cells, 7 days incubation, read-out: IC50 (nM), MDA-MB-436 cell inhibitory activity
  IC50: 36 nM
[1]; MDA-MB-436, MDA-MB-436 cells, 10 μM, read-out: Max inh. % 10 μM
  inhibition at 10 µM: 99.8%
PARP1; PARP1 enzyme
  IC50: 0.32 nM
PARP1; enzyme activities in vitro
  PARP1 inhibitory selectivity over PARP2 and PARP7: good PARP1 inhibitory selectivity

Source: patent publication US20250222116A1, “PARP-1 DEGRADATION AGENT AND USE THEREOF” (XIZANG HAISCO PHARMACEUTICAL CO., LTD., priority 2021, published 2025)
